Target: T1, human CRHR2-alpha (Homo sapiens, UniProt Q13324)
T1 sequence (Q13324 1-411): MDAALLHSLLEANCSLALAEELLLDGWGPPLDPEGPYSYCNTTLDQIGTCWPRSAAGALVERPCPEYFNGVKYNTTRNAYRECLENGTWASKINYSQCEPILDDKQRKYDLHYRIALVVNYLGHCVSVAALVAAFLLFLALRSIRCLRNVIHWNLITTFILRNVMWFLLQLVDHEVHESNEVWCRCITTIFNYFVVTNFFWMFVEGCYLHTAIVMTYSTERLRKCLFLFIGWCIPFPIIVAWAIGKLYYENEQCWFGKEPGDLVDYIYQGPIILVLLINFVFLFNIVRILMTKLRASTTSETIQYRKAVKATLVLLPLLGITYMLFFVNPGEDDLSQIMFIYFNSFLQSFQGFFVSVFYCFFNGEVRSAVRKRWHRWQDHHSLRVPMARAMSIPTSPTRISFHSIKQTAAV
Experiment: cAMP functional assay for human CRHR2 (LANCE Ultra cAMP, TR-FRET)
Format: cell-based
Details: CHO-K1 cells expressing human CRHR2-alpha, agonist human urocortin2 at EC80, cAMP; read-out: IC50 against CRHR2
Method in brief: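 Antagonism measured in CHO-K1 cells stably expressing the receptor, serum-starved 7 h then cryopreserved. Thawed cells in HBSS buffer with 0.1% BSA, 0.5 mM IBMX, 5 mM Hepes pH 7.4 were preincubated with compound 30 min at 25° C, then stimulated 30 min with EC80 agonist: urocortin2 for CRHR2, CRF for CRHR1.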

Compound	IC50 [µM]
Cc1ncc(Cl)cc1C(=O)N[C@H]1CC[C@H](Cn2c(=O)n(-c3ccc4nnn(C)c4c3)c3ccccc32)CC1 [Example 232, 5-chloro-2-methyl-N-((1r,4r)-4-((3-(1-methyl-1H-benzo[d] [1,2,3]triazol-6-yl)-2-oxo-2,3-dihydro-1H-benzo[d]imidazol-1-yl)methyl)cyclohexyl) nicotinamide]	< 0.3
Cc1ncc(Cl)cc1C(=O)N[C@H]1CC[C@H](Cn2c(=O)n(-c3cnc(N(C)C)cn3)c3ccccc32)CC1 [Example 116, 5-chloro-N-((1r,4r)-4-((3-(5-(dimethylamino)pyrazin-2-yl)-2-oxo-2,3-dihydro-1H-benzo[d]imidazol-1-yl)methyl)cyclo-hexyl)-2-methylnicotinamide]	< 0.3
CNC(=O)c1ccc(-n2c(=O)n(C[C@H]3CC[C@H](NC(=O)c4cc(Cl)cnc4C)CC3)c3cc(F)ccc32)cn1 [Example 226, 5-(3-(((1r,4r)-4-(5-chloro-2-methylnicotinamido)cyclo-hexyl)methyl)-5-fluoro-2-oxo-2,3-dihydro-1H-benzo[d]imidazol-1-yl)-N-methylpicolinamide]	< 0.3
Cc1ncc(Cl)cc1C(=O)N[C@H]1CC[C@H](Cn2c(=O)n(-c3ccc(C4=CCOCC4)nc3)c3ccccc32)CC1 [Example 84, 5-chloro-N-((1r,4r)-4-((3-(6-(3,6-dihydro-2H-pyran-4-yl)pyridin-3-yl)-2-oxo-2,3-dihydro-1H-benzo[d]imidazol-1-yl)methyl)cyclohexyl)-2-methylnicotinamide]	< 0.3
O=C(N[C@H]1CC[C@H](Cn2c(=O)n(-c3ccc(N[C@@H]4CCOC4)nc3)c3ccccc32)CC1)c1cc(Cl)cnc1C(F)F [Example 379, 5-chloro-2-(difluoromethyl)-N-((1R,4r)-4-((2-oxo-3-(6-(((R)-tetrahydrofuran-3-yl)amino)pyridin-3-yl)-2,3-dihydro-1H-benzo[d]imidazol-1-yl)methyl)cyclohexyl) nicotinamide]	< 0.3
CNC(=O)c1ccc(-n2c(=O)n(C[C@H]3CC[C@H](NC(=O)c4cc(Cl)cnc4N(C)C)CC3)c3ccccc32)cn1 [Example 328, 5-(3-(((1r,4r)-4-(5-chloro-2-(dimethylamino)nicotinamido)cyclohexyl)methyl)-2-oxo-2,3-dihydro-1H-benzo[d]imidazol-1-yl)-N-methyl-picolinamide]	< 0.3
Cc1ccc(-n2c(=O)n(C[C@H]3CC[C@H](NC(=O)c4cc(Cl)ccc4C(F)(F)F)CC3)c3ccccc32)cn1 [Example 270, 5-chloro-N-((1r,4r)-4-((3-(6-methylpyridin-3-yl)-2-oxo-2,3-dihydro-1H-benzo[d]imidazol-1-yl)methyl)cyclo-hexyl)-2-(trifluoromethyl) benzamide]	< 0.3
Cc1ncc(Cl)cc1C(=O)N[C@H]1CC[C@H](Cn2c(=O)n(-c3ccc(-c4ccc(N)nc4)nc3)c3ccccc32)CC1 [Example 216]	< 0.3
COc1cccc(-n2c(=O)n(C[C@H]3CC[C@H](NC(=O)c4cc(Cl)cnc4C)CC3)c3ccccc32)c1C#N [Example 246, 5-chloro-N-((1r,4r)-4-((3-(2-cyano-3-methoxyphenyl)-2-oxo-2,3-dihydro-1H-benzo [d]imidazol-1-yl)methyl)cyclohexyl)-2-methyl-nicotinamide]	< 0.3

Now from value to compound:

IC50 [µM]	Compound
< 0.3	Cn1ccc(-c2cncc(-n3c(=O)n(C[C@H]4CC[C@H](NC(=O)c5cc(Cl)cnc5C(F)F)CC4)c4ccccc43)c2)n1 [Example 701, 5-chloro-2-(difluoromethyl)-N-((1r,4r)-4-((3-(5-(1-methyl-1H-pyrazol-3-yl)pyridin-3-yl)-2-oxo-2,3-dihydro-1H-benzo [d]imidazol-1-yl)methyl)cyclo-hexyl)nicotinamide]
< 0.3	COCCOc1ccc(-n2c(=O)n(C[C@H]3CC[C@H](NC(=O)c4cc(Cl)cnc4C(F)(F)F)CC3)c3ccccc32)cn1 [Example 416, 5-chloro-N-((1r,4r)-4-((3-(6-(2-methoxyethoxy)pyridin-3-yl)-2-oxo-2,3-dihydro-1H-benzo [d]imidazol-1-yl)methyl)cyclo-hexyl)-2-(trifluoromethyl) nicotinamide]
< 0.3	O=C(N[C@H]1CC[C@H](Cn2c(=O)n(-c3ccc(NCCO)nc3)c3ccccc32)CC1)c1cc(Cl)cnc1C(F)F [Example 571, 5-chloro-2-(difluoromethyl)-N-((1r,4r)-4-((3-(6-((2-hydroxyethyl)amino)pyridin-3-yl)-2-oxo-2,3-dihydro-1H-benzo[d]imidazol-1-yl)methyl)cyclohexyl)nicotinamide]
< 0.3	O=C(N[C@H]1CC[C@H](Cn2c(=O)n(-c3cnc(OCCO)cn3)c3ccccc32)CC1)c1cc(Cl)cnc1C(F)F [Example 563, 5-chloro-2-(difluoromethyl)-N-((1r,4r)-4-((3-(5-(2-hydroxyethoxy)pyrazin-2-yl)-2-oxo-2,3-dihydro-1H-benzo[d]imidazol-1-yl)methyl)cyclohexyl)nicotinamide]
< 0.3	Cc1ncc(Cl)cc1C(=O)N[C@H]1CC[C@H](Cn2c(=O)n(-c3ccnc(N(C)C)c3)c3ccccc32)CC1 [Example 649, 5-chloro-N-((1r,4r)-4-((3-(2-(dimethylamino)pyridin-4-yl)-2-oxo-2,3-dihydro-1H-benzo[d]imidazol-1-yl)methyl)cyclohexyl)-2-methyl-nicotinamide]
< 0.3	Cc1ncc(Cl)cc1C(=O)N[C@H]1CC[C@H](Cn2c(=O)n(-c3ccc(-c4c[nH]cn4)cc3)c3ccccc32)CC1 [Example 667, N-((1r,4r)-4-((3-(4-(1H-imidazol-4-yl)phenyl)-2-oxo-2,3-dihydro-1H-benzo[d]imidazol-1-yl)methyl)cyclohexyl)-5-chloro-2-methylnicotinamide]
< 0.3	Cc1ncc(Cl)cc1C(=O)N[C@H]1CC[C@H](Cn2c(=O)n(-c3ccc(-c4nccs4)cc3)c3ccccc32)CC1 [Example 518, 5-chloro-2-methyl-N-((1r,4r)-4-((2-oxo-3-(4-(thiazol-2-yl)phenyl)-2,3-dihydro-1H-benzo [d]imidazol-1-yl)methyl)cyclo-hexyl)nicotinamide]
< 0.3	O=C(N[C@H]1CC[C@H](Cn2c(=O)n(-c3ccc4cnccc4c3)c3ccccc32)CC1)c1cc(Cl)cnc1C(F)(F)F [Example 398, 5-chloro-N-((1r,4r)-4-((3-(isoquinolin-6-yl)-2-oxo-2,3-dihydro-1H-benzo[d]imidazol-1-yl)methyl)cyclohexyl)-2-(trifluoromethyl)nicotinamide]
< 0.3	NC(=O)Nc1ccc(-n2c(=O)n(C[C@H]3CC[C@H](NC(=O)c4cc(Cl)cnc4C(F)F)CC3)c3ccccc32)cn1 [Example 658, 5-chloro-2-(difluoromethyl)-N-((1r,4r)-4-((2-oxo-3-(6-ureidopyridin-3-yl)-2,3-dihydro-1H-benzo[d]imidazol-1-yl)methyl)cyclohexyl)nicotinamide]
< 0.3	O=C(N[C@H]1CC[C@H](Cn2c(=O)n(-c3ccncc3Cl)c3ncccc32)CC1)c1cc(Cl)cnc1C(F)F [Example 496, 5-chloro-N-((1r,4r)-4-((3-(3-chloropyridin-4-yl)-2-oxo-2,3-dihydro-1H-imidazo[4,5-b]pyridin-1-yl)methyl)cyclohexyl)-2-(difluoromethyl)nicotinamide]

Source: US11802120B2, “Fused cyclic urea derivatives as CRHR2 antagonist” (RaQualia Pharma Inc., priority 2018, dated 2023)
